Laboratory results published in publication doi:10.1101/2024.06.25.600598v1 (biorxiv, 2024).
Counter-ions that a name gives are not always drawn.

Key:
[1] = molecular target: T1, fibroblast activation protein (FAP; rhFAP, SLIN-tagged hFAP) (Homo sapiens, UniProt Q12884); settings: 2 µM; inhibitor
T1 sequence (Q12884 35-760): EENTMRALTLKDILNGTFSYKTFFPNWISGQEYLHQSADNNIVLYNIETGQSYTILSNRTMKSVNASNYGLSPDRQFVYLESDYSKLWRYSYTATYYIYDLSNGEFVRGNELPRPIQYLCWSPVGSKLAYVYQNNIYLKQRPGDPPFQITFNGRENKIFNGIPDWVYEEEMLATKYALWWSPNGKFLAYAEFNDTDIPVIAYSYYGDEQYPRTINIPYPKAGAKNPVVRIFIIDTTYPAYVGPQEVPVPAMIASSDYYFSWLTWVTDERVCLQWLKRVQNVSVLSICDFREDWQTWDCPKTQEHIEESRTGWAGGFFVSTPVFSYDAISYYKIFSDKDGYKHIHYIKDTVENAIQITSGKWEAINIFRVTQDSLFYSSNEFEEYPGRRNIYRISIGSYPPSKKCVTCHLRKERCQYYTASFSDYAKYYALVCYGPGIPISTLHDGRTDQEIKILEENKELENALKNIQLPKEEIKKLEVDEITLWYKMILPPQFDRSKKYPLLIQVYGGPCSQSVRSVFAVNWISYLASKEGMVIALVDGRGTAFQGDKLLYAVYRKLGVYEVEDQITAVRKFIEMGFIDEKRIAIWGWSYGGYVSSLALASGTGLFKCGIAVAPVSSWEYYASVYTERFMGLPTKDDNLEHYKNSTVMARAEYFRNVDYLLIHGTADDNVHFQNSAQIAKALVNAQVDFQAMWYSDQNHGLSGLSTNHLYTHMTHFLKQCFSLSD

[2] = molecular target: T1, fibroblast activation protein (FAP; rhFAP, SLIN-tagged hFAP); experiment: biochemical
[3] = molecular target: T1, fibroblast activation protein (FAP; rhFAP, SLIN-tagged hFAP); experiment: DIANA competition with DNA-linked probe, qPCR; assay type: binding
[4] = molecular target: T1, fibroblast activation protein (FAP; rhFAP, SLIN-tagged hFAP); experiment: biochemical; assay type: binding
[5] = molecular target: T1, fibroblast activation protein (FAP; rhFAP, SLIN-tagged hFAP); experiment: fluorogenic AMC substrate activity assay; assay type: biochemical

| Relative inhibition (%), activity assay [1] [%] | Ki [2] [µM] | Ki [3] [µM] | Ki [4] [µM] | IC50 [5] [µM] | SMILES |
| --- | --- | --- | --- | --- | --- |
| 5 | 0.8 |  |  |  | CCN1CCN(Cc2ccc(Nc3ncc(F)c(-c4cc(F)c5nc(C)n(C(C)C)c5c4)n3)nc2)CC1 [Abemaciclib (methanesulfonate)] |
| 23 | 6.4 |  |  |  | COc1cccc2c1C(=O)c1c(O)c3c(c(O)c1C2=O)C[C@@](O)(C(C)=O)C[C@@H]3O[C@H]1C[C@H](N)[C@H](O)[C@H](C)O1 [Daunorubicin (hydrochloride)] |
| 28 | 0.9 |  |  |  | CCOc1ccc(Nc2ccc(/C(=C3/C=CC(=[N+](CC)Cc4cccc(S(=O)(=O)[O-])c4)C=C3C)c3ccc(N(CC)Cc4cccc(S(=O)(=O)O)c4)cc3C)cc2)cc1 [Brilliant blue G-250] |
| 20 | 4.1 |  |  |  | CC1(C)C(/C=C/C=C/C=C/C=C2\N(CCCCS(=O)(=O)O)c3ccc4ccccc4c3C2(C)C)=[N+](CCCCS(=O)(=O)[O-])c2ccc3ccccc3c21 [Indocyanine green] |
| 15 | 5.8 |  |  |  | CC(=C(CCOC(=O)C(C)C)SSC(CCOC(=O)C(C)C)=C(C)N(C=O)Cc1cnc(C)nc1N)N(C=O)Cc1cnc(C)nc1N (stereo in doubt) [Sulbutiamine] |
| 30 | 2.9 |  |  |  | CCN(CC)CCOc1ccc2c(c1)C(=O)c1cc(OCCN(CC)CC)ccc1-2 [Tilorone (dihydrochloride)] |
| 12 | 3 |  |  |  | C=Cc1c(C)c2cc3nc(c(CC(=O)N[C@@H](CC(=O)O)C(=O)O)c4[nH]c(cc5nc(cc1[nH]2)C(C)=C5CC)c(C)c4C(=O)O)[C@@H](CCC(=O)O)[C@@H]3C [Talaporfin (sodium)] |
|  |  | 0.0007 ± 0.0001 |  |  | Cc1ccc(C)c(CNC(=O)C(=O)[C@@H]2CCCN2C(=O)CNC(=O)c2ccnc3ccccc23)c1 [6f] |
| 27 | 3.3 |  |  |  | CNC(=O)c1ccc(-c2cnc3ncc(Cc4ccc5ncccc5c4)n3n2)cc1F [Capmatinib] |
| 21 | 5.7 |  |  |  | Cc1cc(-c2ccc(/N=N/c3ccc4c(S(=O)(=O)O)cc(S(=O)(=O)O)c(N)c4c3O)c(C)c2)ccc1/N=N/c1ccc2c(S(=O)(=O)O)cc(S(=O)(=O)O)c(N)c2c1O [Evans Blue] |
| 12 | 9.1 |  |  |  | Cc1ccc(C(=O)Nc2ccc(S(=O)(=O)O)c3cc(S(=O)(=O)O)cc(S(=O)(=O)O)c23)cc1NC(=O)c1cccc(NC(=O)Nc2cccc(C(=O)Nc3cc(C(=O)Nc4ccc(S(=O)(=O)O)c5cc(S(=O)(=O)O)cc(S(=O)(=O)O)c45)ccc3C)c2)c1 [Suramin (sodium salt)] |
| 10 | 5.5 |  |  |  | CC/C=C\C/C=C\C/C=C\C/C=C\C/C=C\C/C=C\CCC(=O)O [Docosahexaenoic acid] |
| 19 | 0.6 |  |  |  | COc1cccc2c1C(=O)c1c(O)c3c(c(O)c1C2=O)C[C@@](O)(C(=O)CO)C[C@@H]3O[C@H]1C[C@H](N)[C@H](O[C@@H]2CCCCO2)[C@H](C)O1 [Pirarubicin (Hydrochloride)] |
| 10 | 6.9 |  |  |  | CCc1c(Cl)c(O)c(Cl)c(O)c1C(=O)O[C@H]1[C@H](O)[C@H](OC)[C@H](OC/C2=C\C=C\C[C@H](O)/C(C)=C/[C@H](CC)[C@@H](O[C@@H]3OC(C)(C)[C@@H](OC(=O)C(C)C)[C@H](O)[C@@H]3O)/C(C)=C/C(C)=C/C[C@@H]([C@@H](C)O)OC2=O)O[C@@H]1C [Fidaxomicin] |
| 9 |  |  | 0.1 |  | O=C1OC2(c3cc(I)c(O)c(I)c3Oc3c2cc(I)c(O)c3I)c2c(Cl)c(Cl)c(Cl)c(Cl)c21 [rose bengal] |
| 29 | 9.4 |  |  |  | COc1cc2/c(=N/c3ccc(Br)cc3F)nc[nH]c2cc1OCC1CCN(C)CC1 [Vandetanib] |

| Relative inhibition (%), activity assay [1] [%] | Ki [2] [µM] | Ki [3] [µM] | Ki [4] [µM] | IC50 [5] [µM] | SMILES |
| --- | --- | --- | --- | --- | --- |
|  |  |  |  | > 20 | O=C1OC2(c3ccc(O)cc3Oc3cc(O)ccc32)c2ccccc21 [Fluorescein (sodium)] |
| 35 | 9.7 |  |  |  | Cc1cnc(C(=O)N[C@H]2CCCCC/C=C\[C@@H]3C[C@@]3(C(=O)NS(=O)(=O)C3CC3)NC(=O)[C@@H]3C[C@@H](Oc4nc5ccccc5c5ccccc45)CN3C2=O)cn1 [Paritaprevir] |
| 22 | 8.7 |  |  |  | CCN(c1cc(-c2ccc(CN3CCOCC3)cc2)cc(C(=O)NCc2c(C)cc(C)[nH]c2=O)c1C)C1CCOCC1 [Tazemetostat (hydrobromide)] |
|  |  |  | 0.6 |  | C=CC1=C(C)C2=Cc3c(C=C)c(C)c4[n]3[Fe]([Cl])[n]3c(c(C)c(CCC(=O)O)c3=CC3=NC(=C4)C(C)=C3CCC(=O)O)=CC1=N2 [hemin] |
| 19 | 7.1 |  |  |  | COc1ccc2nc3cc(Cl)ccc3c(Nc3cc(CN4CCCC4)c(O)c(CN4CCCC4)c3)c2n1 [Pyronaridine (tetraphosphate)] |
| 18 | 7.6 |  |  |  | CC(=O)OCC1=C(C(=O)O)N2C(=O)[C@@H](NC(=O)CSc3ccncc3)[C@H]2SC1 [Cephapirin (sodium)] |
| 13 | 7.2 |  |  |  | C[n+]1cc2c3c(ccc2c2ccc4cc5c(cc4c21)OCO5)OCO3 [Sanguinarine (chloride)] |
|  |  |  | 0.64 |  | C[C@@H](O)[C@H]1C(=O)N2C(C(=O)OCOC(=O)C(C)(C)C)=C(SC3CN(C4=NCCS4)C3)[C@H](C)[C@H]12 [Tebipenem pivoxil] |
| 35 | 1.7 |  |  |  | CCCC(=O)OCOC(=O)C1=C(C)NC(C)=C(C(=O)OC)C1c1cccc(Cl)c1Cl (stereo not shown) [Clevidipine] |
| 19 | 5.9 |  |  |  | CN1CCN(c2ccc(Nc3ncc4cc5n(c4n3)C3(CCCCC3)CNC5=O)nc2)CC1 [Trilaciclib (hydrochloride)] |
| 46 |  |  | 0.8 |  | C=CC1=C(C)c2cc3[nH]c(cc4nc(cc5[nH]c(cc1n2)c(C)c5CCC(=O)O)C(CCC(=O)O)=C4C)c(C)c3C=C [protoporphyrin IX] |
| 16 | 2 |  |  |  | COc1ccc(-c2cc(=O)c3c(O)c(OC)c(O)cc3o2)cc1OC [Eupatilin] |
| 16 | 8.8 |  |  |  | CCC1=C(C)CN(C(=O)NCCc2ccc(S(=O)(=O)NC(=O)N[C@H]3CC[C@H](C)CC3)cc2)C1=O [Glimepiride] |
| 26 | 7.9 |  |  |  | CCOC(=O)n1ccn(C)c1=S [Carbimazole] |
| 45 |  |  | 2.2 |  | CC(C)(C)C(=O)OCOC(=O)[C@@H]1N2C(=O)[C@@H](N=CN3CCCCCC3)[C@H]2SC1(C)C [pivmecillinam] |
